The subject of experiment [1] is SARS-CoV-2 Omicron BA.1 variant. The experiment in a line: Antiviral activity against SARS-CoV-2 Omicron BA.1 in Vero E6 cells (qRT-PCR). Format: cell-based.
Experiment [2] concerns SARS-CoV-2 Omicron BA.5 variant. Nature of the experiment: Antiviral activity against SARS-CoV-2 Omicron BA.5 in Vero E6 cells (qRT-PCR). Format: cell-based. A general note: Real-time PCR tracks product formation cycle by cycle.
In experiment [3] the test system is SARS-CoV-2 Delta variant. Nature of the experiment: Antiviral activity against SARS-CoV-2 Delta in Vero E6 cells (viral RNA copies, qRT-PCR). The format is cell-based.
In experiment [4] the test system is SARS-CoV-2 Delta variant. The format is in vivo, K18-hACE2 mice.
Experiment [5] concerns SARS-CoV-2 Omicron BA.1 variant. Nature of the experiment: Antiviral activity against SARS-CoV-2 Omicron BA.1 in HEK293T-hACE2-TMPRSS2 cells (qRT-PCR). The format is cell-based. To be noted: Severe acute respiratory syndrome coronavirus 2, 24 h; read-out: EC50 mean ± sd, HEK293T-ACE2-T2, Omicron BA.1.
The subject of experiment [6] is SARS-CoV-2 Delta variant. Nature of the experiment: Antiviral activity against SARS-CoV-2 Delta in HEK293T-hACE2-TMPRSS2 cells (qRT-PCR). The format is cell-based. To be noted: Severe acute respiratory syndrome coronavirus 2, 24 h; read-out: EC50 mean ± sd, HEK293T-ACE2-T2, Delta.
Experiment [7] has as its system SARS-CoV-2 Omicron BA.5 variant. Nature of the experiment: Antiviral activity against SARS-CoV-2 Omicron BA.5 in HEK293T-hACE2-TMPRSS2 cells (qRT-PCR). The format is cell-based. To be noted: Severe acute respiratory syndrome coronavirus 2, 24 h; read-out: EC50 mean ± sd, HEK293T-ACE2-T2, Omicron BA.5.
In experiment [8] the test system is SARS-CoV-2 variants (Delta, Omicron BA.1, and Omicron BA.5), HCoV-OC43, and HCoV-229E. Nature of the experiment: organism not typed. The format is cell-based. To be noted: read-out: half-maximal effective concentrations (EC50), range over HCoVs and cell lines.
Setting [9] is: Severe acute respiratory syndrome coronavirus 2, Vero C1008, 24 h, read-out: EC50 mean ± sd, Vero E6, Omicron BA.1.
Where [10] appears, read: Severe acute respiratory syndrome coronavirus 2, Vero C1008, 24 h, read-out: EC50 mean ± sd, Vero E6, Omicron BA.5.
Where [11] appears, read: Severe acute respiratory syndrome coronavirus 2, Vero C1008, 24 h, read-out: EC50 mean ± sd, Vero E6, Delta.

SMILES strings stand for the structures.

Regarding `CCC(CC)COC(=O)[C@H](C)N[P@](=O)(OC[C@H]1O[C@@](C#N)(c2ccc3c(N)ncnn23)[C@H](O)[C@@H]1O)Oc1ccccc1` [RDV, remdesivir], the EC50 in experiment [1] (Severe acute respiratory syndrome coronavirus 2, Vero C1008, Vero E6 cells, read-out: EC50 against the SARS-CoV-2 Omicron BA.1 variant in Vero E6 cells) was 540 nM; in experiment [2] (Severe acute respiratory syndrome coronavirus 2, Vero C1008, Vero E6 cells, read-out: EC50 against Omicron BA.5), 130 nM; in experiment [3] (Severe acute respiratory syndrome coronavirus 2, Vero C1008, Vero E6 cells, read-out: EC50 against the SARS-CoV-2 Delta variant in Vero E6 cells) it was 2200 nM.

With `CC(C)(C)[C@H](NC(=O)C(F)(F)F)C(=O)N1C[C@H]2[C@@H]([C@H]1C(=O)N[C@H](C#N)C[C@@H]1CCNC1=O)C2(C)C` [Nirmatrelvir, nirmatrelvir], the “expression of IL-6 and CCL2 in the lungs” value in experiment [4] (initial days (day 2)) is reported as “reduction”. Besides, the “reduction of lung viral loads compared to the vehicle group” value in experiment [4] (oral BID, […], VV116 50 and 100 mpk, nirmatrelvir 100 mpk with ritonavir 50 mpk, Combo = VV116 50 + nirmatrelvir 100 + ritonavir 50 mpk) is recorded as 1–2 log.

As for `N#C[C@@]1(c2ccc3c(N)ncnn23)O[C@H](CO)[C@@H](O)[C@H]1O` [GS-441524], the EC50 in experiment [1] (setting [9]) was found to be 280 ± 11 nM; in experiment [2] (setting [10]) it was 100 ± 11 nM; in experiment [3] (setting [11]) it was 610 ± 79 nM; in experiment [5], 380 ± 40 nM; in experiment [6] it was 250 ± 140 nM; in experiment [7], 750 ± 64 nM.

As for `[2H]c1cc([C@]2(C#N)O[C@H](CO)[C@@H](O)[C@H]2O)n2ncnc(N)c12` [X1], the EC50 is 300 ± 27 nM in experiment [1] (setting [9]); 460 ± 4 nM in experiment [2] (setting [10]); 60 to 1100 nM in experiment [8]; 830 ± 71 nM in experiment [3] (setting [11]); 720 ± 24 nM in experiment [5]; 150 ± 37 nM in experiment [6]. In addition, in experiment [7], the EC50 is 450 ± 100 nM.

The values are drawn from PMC10514301 (Signal Transduction and Targeted Therapy, 2023).
